The text below walks through data of patent US20260125371A1, “METHOD FOR INHIBITING CLOSTRIDIOIDES DIFFICILE SPORE GERMINATION” (UNIVERSITY OF NOTRE DAME DU LAC, priority 2022, published 2026).

In brackets after ≈: the same amount, converted by molar mass.

One test deals with S. oralis ATCC 9811. Description: MIC against S. oralis. In kind it is cell-based. The note with it: Streptococcus oralis, ATCC9811.
Another test has as its system B. cereus ATCC 13061. The experiment in a line: MIC against B. cereus. In kind it is cell-based. As to conditions: Bacillus cereus, ATCC13061.

In general, MIC refers to the smallest concentration in the dilution series that meets the test's criterion for growth inhibition. Low values mean inhibition by little substance, high ones a need for much substance.

`CCc1c(Cl)c(O)c(Cl)c(O)c1C(=O)O[C@H]1[C@H](O)[C@H](OC)[C@H](OC/C2=C\C=C\C[C@H](O)/C(C)=C/[C@H](CC)[C@@H](O[C@@H]3OC(C)(C)[C@@H](OC(=O)C(C)C)[C@H](O)[C@@H]3O)/C(C)=C/C(C)=C/C[C@@H]([C@@H](C)O)OC2=O)O[C@@H]1C` [FDX, fidaxomicin]: the MIC against S. oralis ATCC 9811 stood at 32 µg/mL (≈ 30.2 µM).

`Cc1ncc([N+](=O)[O-])n1CCO` [MTZ, metronidazole] yielded an MIC against B. cereus ATCC 13061 greater than 256 µg/mL.
